Laboratory results from patent US8846933B2, “N-link hydroxamic acid derivatives useful as antibacterial agents” (Pfizer Inc., priority 2009, dated 2014).

Tests used:
[1] = tested on: Pseudomonas aeruginosa UI-18: Wild-type (PA-7); assay: MIC determination (CLSI), strain PA-7; format: cell-based; conditions: strain PA-7, unit assumed
Procedure: (§1) The in vitro antibacterial activity of compounds described in the Examples was evaluated by minimum inhibitory concentration (MIC) testing according to Clinical and Laboratory Standards Institute (CLSI, formerly NCCLS) guidelines. See: Clinical and Laboratory Standards Institute. Methods for Dilution Antimicrobial Susceptibility Tests for Bacteria that Grow Aerobically; Approved Standard-Seventh Edition. CLSI document M7-A7 [ISBN 1-56238-587-9]. Clinical and Laboratory Standards Institute, 940 West Valley Road, Suite 1400, Wayne, Pa. 19087-1898 USA, 2006; also Clinical and Laboratory Standards Institute. Performance Standards for Antimicrobial Susceptibility Testing; Eighteenth Informational Supplement. CLSI document M100-S18 [ISBN1-56238-653-0].Clinical and Laboratory Standards Institute.
(§2) The following bacterial strains were used in these MIC determinations:
1) Pseudomonas aeruginosa UI-18: Wild-type, labeled as PA-7 in Tables 4, and 5;

[2] = tested on: Escherichia coli EC-1: VOGEL, mouse virulent; assay: MIC determination (CLSI), strain EC-1; format: cell-based; conditions: strain EC-1, unit assumed
Procedure: as §1, §2
3) Escherichia coli EC-1: VOGEL, mouse virulent labeled as EC-1 in Tables 4 and 5;

[3] = generated in the same manner as in Table 4

SMILES | PA-7 (MIC) [1, 3] [µg/mL] | EC-1 (MIC) [2, 3] [µg/mL] | PA-7 (MIC) [1] [µg/mL] | EC-1 (MIC) [2] [µg/mL]
CC(CCn1ccc(-c2cc(F)ccc2OC(F)(F)F)cc1=O)(C(=O)NO)S(C)(=O)=O (centres unmarked) [Example 137, 4-{4-[5-fluoro-2-(trifluoromethoxy)phenyl]-2-oxopyridin-1(2H)-yl}-N-hydroxy-2-methyl-2-(methylsulfonyl)butanamide] | > 64 | > 64 | – | –
CC(CCn1ccc(-c2ccc(OCCCCS(N)(=O)=O)cc2Cl)cc1=O)(C(=O)NO)S(C)(=O)=O (centres unmarked) [Example 276, 4-[4-{4-[4-(aminosulfonyl)butoxy]-2-chlorophenyl}-2-oxopyridin-1(2H)-yl]-N-hydroxy-2-methyl-2-(methylsulfonyl)butanamide] | – | – | 32 | 16
COc1ccc(-c2ccn(CC[C@](C)(C(=O)NO)S(C)(=O)=O)c(=O)c2)cc1Cl [Example 334, (2R)-4-[4-(3-chloro-4-methoxyphenyl)-2-oxopyridin-1(2H)-yl]-N-hydroxy-2-methyl-2-(methylsulfonyl)butanamide] | – | – | 1 | 8
CC(C)(C#N)c1ccc(-c2ccn(CC[C@](C)(C(=O)NO)S(C)(=O)=O)c(=O)c2)cc1 [Example 362, (2R)-4-{4-[4-(1-cyano-1-methylethyl)phenyl]-2-oxopyridin-1(2H)-yl}-N-hydroxy-2-methyl-2-(methylsulfonyl)butanamide] | – | – | 4 | 16
Cc1cc(-c2ccc(-c3ccn(CC[C@](C)(C(=O)NO)S(C)(=O)=O)c(=O)c3)cc2)[nH]n1 [Example 369] | – | – | 4 | 2
COC1(c2ccc(-c3ccn(CC[C@](C)(C(=O)NO)S(C)(=O)=O)c(=O)c3)cc2)CCC1 [Example 352, (2R)-N-hydroxy-4-{4-[4-(1-methoxycyclobutyl)phenyl]-2-oxopyridin-1(2H)-yl}-2-methyl-2-(methylsulfonyl)butanamide] | – | – | 8 | 2
C[C@@](CCn1ccc(-c2ccc(Oc3nc4ccccc4s3)cc2)cc1=O)(C(=O)NO)S(C)(=O)=O [Example 445] | – | – | 4 | 0.25
Cc1cccc(-c2ccn(CC[C@](C)(C(=O)NO)S(C)(=O)=O)c(=O)c2)c1F [Example 323, (2R)-4-[4-(2-fluoro-3-methylphenyl)-2-oxopyridin-1(2H)-yl]-N-hydroxy-2-methyl-2-(methylsulfonyl)butanamide] | – | – | 0.5 | 0.25
C[C@@](CCn1ccc(-c2ccc(OC3CCNCC3)c(F)c2)cc1=O)(C(=O)NO)S(C)(=O)=O [Example 337, (2R)-4-{4-[3-fluoro-4-(piperidin-4-yloxy)phenyl]-2-oxopyridin-1(2H)-yl}-N-hydroxy-2-methyl-2-(methylsulfonyl)butanamide] | – | – | > 64 | > 64
CC(CCn1ccc(-c2ccc(OCCCN3CCCC(F)(F)C3)cc2)cc1=O)(C(=O)NO)S(C)(=O)=O (centres unmarked) [Example 100, 4-[4-{4-[3-(3,3-difluoropiperidin-1-yl)propoxy]phenyl}-2-oxopyridin-1(2H)-yl]-N-hydroxy-2-methyl-2-(methylsulfonyl)butanamide] | 8 | 1 | – | –
C[C@@](CCn1ccc(-c2ccc(-c3ncc(Cl)cn3)cc2)cc1=O)(C(=O)NO)S(C)(=O)=O [Example 458, (2R)-4-{4-[4-(5-chloropyrimidin-2-yl)phenyl]-2-oxopyridin-1(2H)-yl}-N-hydroxy-2-methyl-2-(methylsulfonyl)butanamide] | – | – | 0.5 | 0.06
CC(CCn1ccc(-c2ccc(OCCCN3CCOCC3)c(Cl)c2)cc1=O)(C(=O)NO)S(C)(=O)=O (centres unmarked) [Example 221, 4-{4-[3-chloro-4-(3-morpholin-4-ylpropoxy)phenyl]-2-oxopyridin-1(2H)-yl}-N-hydroxy-2-methyl-2-(methylsulfonyl)butanamide] | – | – | 8 | 2
CC(CCn1ccc(-c2ccc(OCCCO)cc2Cl)cc1=O)(C(=O)NO)S(C)(=O)=O (centres unmarked) [Example 251, 4-{4-[2-chloro-4-(3-hydroxypropoxy)phenyl]-2-oxopyridin-1(2H)-yl}-N-hydroxy-2-methyl-2-(methylsulfonyl)butanamide] | – | – | 4 | 2
